Measured values: patent US12540143B2, “Methods and compositions for targeted protein degradation” (Ranok Therapeutics (Hangzhou) Co. Ltd., priority 2019, dated 2026)
Structures can show the parent of a compound that is named as a salt. Where two headings read alike, the source gives them in different places.

Assays:
MV4-11 cells = assay: MV4-11 Cytotoxicity Assay; format: cell-based, human; conditions: Homo sapiens, read-out: MV4-11 cytotoxicity
HSP90α = HSP90α (Homo sapiens, UniProt P07900); assay: HSP90α Binding Fluorescent Polarization (FP) Assay; conditions: competition with FITC-geldanamycin; read-out: HSP90 Binding Potency
Protocol: HSP90α Binding Fluorescent Polarization (FP) Assay
A master mix was prepared with assay buffer, BSA and FITC-geldanamycin. In a 96-well plate, a serial 3-fold dilution of each compound was prepared ranging from 40 μM down until 2.0 nM. Also in a 96-well plate, recombinant HSP90α protein was diluted to 28 μg/ml. Then, in a 384-well plate, 10 μl of master mix and 5 μl of compound dilution were added per well to duplicate wells and mixed by brief shaking. Then 5 μl of diluted HSP90α protein was added per well, mixed by brief shaking, incubated at 25° C. for 30, 60 and 120 min and fluorescence was measured on an En Vision Plate Reader. Background-subtracted mP values were calculated from En Vision raw data and a four-parameter “log[inhibitor] vs. response” curve was fitted using GraphPad Prism 7.0.

MYC protein = assay: MYC Protein Expression HTRF Assay in MV4-11 cells; format: cell-based; conditions: Homo sapiens, 24 hr treatment
Protocol: MYC protein expression was measured using the Human c-Myc Cell-based Assay Kit (Cisbio, #63ADK053PEG), a homogeneous time resolved fluorescence (HTRF) assay. […] Cells were collected by centrifugation, supernatant removed by aspiration and 10 μL of lysis buffer was added and incubated for 45 min at room temperature while shaking. In a 384-well plate, 10 μL of cell lysate/well was combined with 10 μL of premixed antibody solution containing anti-human MYC-Eu3+ Cryptate prepared in detection buffer and incubated overnight at room temperature, whereupon the signal was measured. The ratio of the acceptor and donor emission signals for each individual well were calculated (ratio=665 nm/620 nm[…]).

BRD4 = target: T1, BRD4 (Homo sapiens, UniProt O60885); assay: BRD4 Degradation Flow Cytometry Assay in MV4-11 cells; format: cell-based; conditions: for Percentage BRD4 degradation vs untreated: 24 hr, highest degradation percentage observed at concentrations between 40-1000 nM
T1 construct: endogenous in cells; host or cells: MV4-11
Protocol: Protein Degradation Flow Cytometry
MV4-11 cells were plated in a 24-well tissue culture plate at a density of 350,000 cells/450 μL/well and incubated in 37° C./5% CO2 for 1 hr. Cells were then treated with compounds at various concentrations and incubated in 37° C./5% CO2 for 24 hr. Cells were harvested, washed once, counted and 200 μL of 1% paraformaldehyde/PBS was added and incubated for 15 min at room temperature. 200 μL of 1×PBS/0.4% Triton X-100 was added and incubated for 15 min at 4° C. Cells were washed three times and resuspended in 50 μL of 1×PBS/0.2% Triton X-100. 2 μL/10^6 cells of anti-BRD4 antibody (ABCAM, #128874) was added and mixed by pipetting up and down. Cells were incubated for 30 min at room temperature in the dark, washed three times and resuspended in 50 μL of 1×PBS/0.2% Triton X-100. Goat anti-rabbit IgG H&L antibody (1:2000 dilution) was added and mixed by pipetting up and down and incubated for 30 min at room temperature in the dark. Finally, cells were washed three times and resuspended in 200 μL of PBS for flow cytometric analysis.

BRD4 (BD1+BD2) = target: T2, BRD4 (BD1+BD2) (Homo sapiens, UniProt O60885); assay: BRD4 (BD1 + BD2) Binding HTRF Assay; conditions: read-out: BRD4 Binding Potency
T2 construct: 1.8 μg/ml recombinant BRD4 (BD1+BD2 domains) protein
Protocol: A master mix was prepared with assay buffer, 1.8 μg/ml recombinant BRD4 (BD1+BD2 domains) protein, and 200-fold dilutions of Tb-labeled donor and dye-labeled acceptor. 40-fold dilutions of acetylated and non-acetylated ligands were prepared in 1×BRD TR-FRET assay buffer. Also, a serial 3-fold dilution of each compound was prepared ranging from 40 μM down until 2.0 nM. In a 384-well plate, 5 μl diluted ligand and 5 μl of compound dilution were added per well to duplicate wells and mixed by brief shaking. Then 10 μl of master mix was added per well, mixed by brief shaking, incubated at 25° C. for 2 hr and fluorescence was measured on an En Vision Plate Reader. The 665 nm/615 nm ratio was calculated from EnVision raw data. Data were normalized using whole-plate averages of “positive” and “negative” readings. A four-parameter “log[inhibitor] vs. response” curve was fitted using GraphPad Prism 7.0.

SMILES	IC50 (MV4-11 cells; MV4-11, 72 hr, CCK-8) [µM]	IC50 (HSP90α) [µM]	IC50 (MV4-11 cells; MV4-11, 72 h) [µM]	IC50 (MYC protein) [µM]	Percentage BRD4 degradation vs untreated (BRD4; MV4-11 cells)	BRD4 degradation (in words) (BRD4; MV4-11 cells, flow cytometry)	ability to degrade BRD4 after pretreatment (BRD4; cells pretreated with a combination of a HSP90 binder and (+)-JQ1)	IC50 (BRD4 (BD1+BD2)) [µM]
Cc1sc2c(c1C)C(c1ccc(Cl)cc1)=N[C@@H](CC(=O)NC(C)c1ccc(CN3CCC(Cc4ccc(-n5c(O)nnc5-c5cc(C(C)C)c(O)cc5O)cc4)CC3)cc1)c1nnc(C)n1-2 (stereo in doubt) [Compound 82, 2-((S)-4-(4-chlorophenyl)-2,3,9-trimethyl-6H-thieno[3,2-f][1,2,4]triazolo[4,3-a][1,4]diazepin-6-yl)-N—((R)-1-(4-((4-(4-(3-(2,4-dihydroxy-5-isopropylphenyl)-5-hydroxy-4H-1,2,4-triazol-4-yl)benzyl)piperidin-1-yl)methyl)phenyl)ethyl)acetamide hydrochloride]	< 0.1	0.1 to 1						
Cc1sc2c(c1C)C(c1ccc(Cl)cc1)=N[C@H](CC(=O)N1CCC(CN3CCN(Cc4ccc(-n5c(O)nnc5-c5cc(C(C)C)c(O)cc5O)cc4)CC3)CC1)c1nnc(C)n1-2 [Compound 5, 2-((6R)-4-(4-chlorophenyl)-2,3,9-trimethyl-6H-thieno[3,2-f][1,2,4]triazolo[4,3-a][1,4]diazepin-6-yl)-1-(4-((4-(4-(3-(2,4-dihydroxy-5-isopropylphenyl)-5-hydroxy-4H-1,2,4-triazol-4-yl)benzyl)piperazin-1-yl)methyl)piperidin-1-yl)ethanone, trifluoroacetic acid]			< 0.1	< 0.1	C (Degradation < 10%)	does not degrade BRD4		
Cc1sc2c(c1C)C(c1ccc(Cl)cc1)=N[C@@H](CC(=O)N1CCC(CN3CCN(Cc4ccc(-n5c(O)nnc5-c5cc(C(C)C)c(O)cc5O)cc4)CC3)CC1)c1nnc(C)n1-2 [Compound 40, 2-((6S)-4-(4-chlorophenyl)-2,3,9-trimethyl-6H-thieno[3,2-f][1,2,4]triazolo[4,3-a][1,4]diazepin-6-yl)-1-(4-((4-(4-(3-(2,4-dihydroxy-5-isopropylphenyl)-5-hydroxy-4H-1,2,4-triazol-4-yl)benzyl)piperazin-1-yl)methyl)piperidin-1-yl)ethanone, trifluoroacetic acid]				< 0.1	A (Degradation > 50%)		significantly reduced	
Cc1sc2c(c1C)C(c1ccc(Cl)cc1)=N[C@@H](CCN1CCC(CN3CCN(Cc4ccc(-n5c(O)nnc5-c5cc(C(C)C)c(O)cc5O)cc4)CC3)CC1)c1nnc(C)n1-2 [Compound 76, trifluoroacetic acid]		0.1 to 1	< 0.1					> 1
